What was measured:
MDA-MB-231 [1] = experiment: drug sensitivity score (DSS), cytotoxicity CellTox Green; higher = more cytotoxic; extreme values may be limits of the assay; conditions: 72 h
MDA-MB-231 [2] = experiment: drug sensitivity score (DSS), cell viability CellTiter-Glo; higher = more sensitive; extreme values may be limits of the assay; conditions: 72 h
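For drug sensitivity score (DSS), cytotoxicity CellTox Green in this document: DSS summarises each dose–response curve by combining IC50, EC50, maximal inhibition and efficacy across drug concentrations.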

Compound | drug sensitivity score (MDA-MB-231 [1]; shRNA: shPPFIA1_1) [DSS] | drug sensitivity score (MDA-MB-231 [1]; shRNA: shScramble) [DSS] | drug sensitivity score (MDA-MB-231 [2]; shRNA: shPPFIA1_1) [DSS] | drug sensitivity score (MDA-MB-231 [2]; shRNA: shScramble) [DSS]
O=C(O)CSc1cc(NS(=O)(=O)c2ccc(Br)cc2)c2ccccc2c1O [UMI-77] | 8 | 18.7 | 3.2 | 10.8
COC[C@H](NC(=O)c1cnc(C)s1)C(=O)N[C@@H](COC)C(=O)N[C@@H](Cc1ccccc1)C(=O)[C@@]1(C)CO1 [Oprozomib] | 17 | 16.8 | 11.4 | 11.5
Cc1cn(-c2cc(NC(=O)c3ccc(C)c(Nc4nccc(-c5cccnc5)n4)c3)cc(C(F)(F)F)c2)cn1 [Nilotinib] | 4.5 | 0.2 | 0 | 3.8
CC(C)(C)c1nc(-c2cccc(NS(=O)(=O)c3c(F)cccc3F)c2F)c(-c2ccnc(N)n2)s1 [Dabrafenib] | 0.9 | 0.9 | 0 | 0
Cn1cncc1[C@@](N)(c1ccc(Cl)cc1)c1ccc2c(c1)c(-c1cccc(Cl)c1)cc(=O)n2C [Tipifarnib] | 5.9 | 0.8 | 3.5 | 4
COc1cc(Nc2c(C#N)cnc3cc(OCCCN4CCN(C)CC4)c(OC)cc23)c(Cl)cc1Cl [Bosutinib] | 6.2 | 6.3 | 6.3 | 9.3
O=C1NC(=O)/C(=C/c2ccc3nccc(-c4ccncc4)c3c2)S1 | 0 | 0 | 0 | 4.3
N#Cc1ccc(COC[C@H]2O[C@@H](n3c(NCc4ccc(Cl)c(Cl)c4)nc4c(N)ncnc43)[C@H](O)[C@@H]2O)cc1 | 0 | 0 | 2.3 | 1.7
C[C@@H]1C[C@H]2O[C@@H]2/C=C\C=C\C(=O)Cc2c(Cl)c(O)cc(O)c2C(=O)O1 [Radicicol] | 0 | 1.9 | 2 | 6.4
Clc1ccc(Nc2nnc(Cc3ccncc3)c3ccccc23)cc1 [Vatalanib] | 0 | 0 | 0 | 0
O=C(Cc1ccc(-c2ccc(OCCN3CCOCC3)cc2)cn1)NCc1ccccc1 [KX2-391] | 5.5 | 1.8 | 2.1 | 8.2
COc1cc(F)c(F)c(Nc2ccc(I)cc2F)c1NS(=O)(=O)C1(C[C@H](O)CO)CC1 [Refametinib] | 10.5 | 18.6 | 6 | 10.6
COc1cc2ncnc(Nc3ccc(F)c(Cl)c3)c2cc1NC(=O)/C=C/CN1CCCCC1 [Dacomitinib] | 0 | 4.7 | 0.9 | 0
C[C@@H]1C[C@H]2[C@@H]3CCC4=CC(=O)C=C[C@]4(C)[C@@]3(F)[C@@H](O)C[C@]2(C)[C@@]1(O)C(=O)CO [Dexamethasone] | 0 | 0 | 0 | 0
O=C(/C=C\n1cnc(-c2cc(C(F)(F)F)cc(C(F)(F)F)c2)n1)NNc1cnccn1 [Selinexor] | 5.8 | 8.1 | 8.6 | 13.5
CC(C)c1cc(C(=O)N2Cc3ccc(CN4CCN(C)CC4)cc3C2)c(O)cc1O [Onalespib] | 0 | 2.6 | 13.6 | 10.6

Compound | drug sensitivity score (MDA-MB-231 [1]; shRNA: shPPFIA1_1) [DSS] | drug sensitivity score (MDA-MB-231 [1]; shRNA: shScramble) [DSS] | drug sensitivity score (MDA-MB-231 [2]; shRNA: shPPFIA1_1) [DSS] | drug sensitivity score (MDA-MB-231 [2]; shRNA: shScramble) [DSS]
COC(=O)N[C@@H](C)CNc1nccc(-c2cn(C(C)C)nc2-c2cc(Cl)cc(NS(C)(=O)=O)c2F)n1 [Encorafenib] | 0 | 0 | 0 | 1.3
CCn1c(-c2nonc2N)nc2cnc(Oc3cccc(NC(=O)c4ccc(OCCN5CCOCC5)cc4)c3)cc21 | 0 | 0 | 0 | 1.5
Cc1cc(C(C)Nc2ccccc2)c2nc(N3CCOCC3)cc(=O)n2c1 (stereo not drawn) [TGX-221] | 0.6 | 0 | 0 | 3.2
CC(C)NC(=O)COc1cccc(-c2nc(Nc3ccc4[nH]ncc4c3)c3ccccc3n2)c1 [SLx-2119] | 0 | 0 | 0 | 0
COc1cc(O)c2c(c1)/C=C/C[C@H](O)[C@H](O)C(=O)/C=C\C[C@H](C)OC2=O [(5Z)-7-Oxozeaenol] | 0.4 | 2.7 | 0 | 2.1
COCC1(CO)C(=O)C2CCN1CC2 (stereo not drawn) [APR-246] | 0 | 0 | 1.3 | 0
O=C(Nc1c[nH]nc1-c1nc2ccc(CN3CCOCC3)cc2[nH]1)NC1CC1 [AT9283] | 0.2 | 0.8 | 0 | 0.5
CS(=O)(=O)OCCCCOS(C)(=O)=O [Busulfan] | 0 | 0 | 0 | 0.2
CC(=O)[C@]1(O)Cc2c(O)c3c(c(O)c2[C@@H](O[C@H]2C[C@H](N)[C@H](O)[C@H](C)O2)C1)C(=O)c1ccccc1C3=O [Idarubicin] | 6.6 | 7.5 | 6.4 | 10.7
CC(=O)N(O)CCCCCNC(=O)CCC(=O)N(O)CCCCCNC(=O)CCC(=O)N(O)CCCCCN [Deferoxamine] | 0 | 0 | 2.5 | 2.7
CN1CCC(CNc2ccc3ncc(-c4cccc(OC(F)(F)F)c4)n3n2)CC1 [SGI-1776] | 4.9 | 4.7 | 9 | 9
Cc1ccc2nc(CN(CCN(Cc3nc4ccc(C)cc4[nH]3)Cc3nc4ccc(C)cc4[nH]3)Cc3nc4ccc(C)cc4[nH]3)[nH]c2c1 | 6.8 | 1.9 | 0.6 | 2.6
O=C1NC(=O)[C@@H](c2cn3c4c(cccc24)CCC3)[C@@H]1c1c[nH]c2ccccc12 [Tivantinib] | 1.7 | 0.5 | 4.8 | 3.8
CN1CCN(c2ccc3nc(-c4c(N)c5c(F)cccc5[nH]c4=O)[nH]c3c2)CC1 [Dovitinib] | 0 | 0 | 0 | 0
O=C(O)CCCCC(CCSCc1ccccc1)SCc1ccccc1 (stereo not drawn) [CPI-613] | 0 | 0 | 0 | 0
NC[C@@](O)(c1ccc(Cl)cc1)c1ccc(-c2cn[nH]c2)cc1 | 7.8 | 7.6 | 3 | 6
